Where a name gives a salt, the structure may show the parent alone.
Key:
S1P1 [1] = target: T1, S1P1 (Homo sapiens, UniProt P21453); experiment: S1P1 GTPγS assay; assay type: biochemical; set-up: expressed in transfected cells; host or cells: RH7777 cells (membranes); conditions: tested in one of the above S1P1 assays (two protocols)
Description: The potencies and efficacies of the compounds of this invention for the S1P1 receptor can be determined by GTPγS assay performed on the human cloned receptor as described herein. […] All steps were performed at 4° C. Cells were homogenised within a glass Waring blender for 2 bursts of 15 secs in 200 mls of buffer (50 mM HEPES, 1 mM leupeptin, 25 m/ml bacitracin, 1 mM EDTA, 1 mM PMSF, 2 μM pepstatin A). The blender was plunged into ice for 5 mins after the first burst and 10-40 mins after the final burst to allow foam to dissipate. The material was then spun at 500 g for 20 mins and the supernatant spun for 36 mins at 48,000 g. The pellet was resuspended in the same buffer as above but without PMSF and pepstatin A. The material was then forced through a 0.6 mm needle, made up to the required volume, (usually ×4 the volume of the original cell pellet), aliquoted and stored frozen at—80° C. S1P1 expressing RH7777 membranes (1.5 μg/well) membranes (1.5 μg/well) were homogenised by passing through a 23G needle. These were then adhered to WGA-coated SPA beads (0.125 mg/well) in assay buffer (HEPES 20 mM, MgCl2, 10 mM, NaCl 100 mM and pH adjusted to 7.4 using KOH 5M). GDP 10 μM FAC and saponin 90 μg/ml FAC were also added After 30 minutes precoupling on ice, the bead and membrane suspension was dispensed into white Greiner polypropylene LV 384-well plates (5 μl/well), containing 0.1 μl of compound. 5 μl/well [^35S]-GTPγS (0.5 nM for S1P1 or 0.3 nM for S1P3 final radioligand concentration) made in assay buffer was then added to the plates. The final assay cocktail (10.1 μl) was then sealed, spun on a centrifuge, then read immediately on a Viewlux instrument. Alternatively, after 30 minutes precoupling on ice, the bead and membrane suspension was mixed with ^35S]-GTPγS (0.5 nM final radioligand concentration) in assay buffer (HEPES 20 mM, MgCl2 10 mM, NaCl 100 mM and pH adjusted to 7.4 using KOH 5M) in a 1:1 ratio. The bead, membrane and radioligand suspension was dispensed into white Greiner polypropylene low volume 384-well plates (10 μl/well), containing 0.1 μl of a solution of test compound in 100% DMSO. The final assay cocktail (10.1 μl) was then sealed, spun on a centrifuge, then read immediately on a Viewlux instrument.

S1P1 [2] = target: T1, S1P1; experiment: S1P-1 β-Arrestin recruitment assay; assay type: cell-based; set-up: host or cells: PathHunter CHO-K1 EDG1 β-Arrestin cell line; conditions: PathHunter CHO-K1 EDG1 β-Arrestin cell line, chemi-luminescence
Description: β-Arrestin recruitment assays were carried out using the PathHunter CHO-K1 EDG1 β-Arrestin cell line (DiscoveRx Corporation) in a chemi-luminescence detection assay. This cell line stably expresses β-Arrestin 2 and S1P1 fused to complementing portions of β-galactosidase (‘EA’ and ‘pro-link’, respectively) which associate upon Arrestin recruitment to form functional β-galactosidase enzyme.
Cells were grown to 80% confluency in Growth Medium (F12 nutrient HAMS supplemented with 10% heat-inactivated USA FBS, 1% L-glutamax, 800 m/ml Geneticin and 300 m/ml Hygromycin). Cells were harvested from the flask using Enzyme Free Cell Dissociation Buffer (Gibco) and washed from flasks with Optimem solution (Gibco). Cells were then centrifuged at 1000 rpm for 2-3 min and resuspended in Assay Buffer (Prepared from Sigma kit H1387 supplemented with 20 ml/L HEPES, 4.7 ml/L NaHCO3, 0.1% pluronic acid F-68 solution, 0.1% BSA and adjusted to pH 7.4 using sodium hydroxide at 1×10^6 cells/ml. Cells were dispensed into assay plates containing compounds (100n1/well of a solution of test compound in 100% DMSO) at 1×10^4 cells/well and incubated at 37° C./5% CO2 for 90 min followed by 15 min at room temperature. 5 μl detection mix (1 part Galacton Star, 5 parts Emerald II, 19 parts Assay Buffer; DiscoveRx) were added per well and the plates incubated at room temperature for 60 min. Luminescence was quantified using a Viewlux plate reader.

[3] = clinical studies, first 24 hours of treatment; cited from earlier work
circulating lymphocytes = conditions: animals and man; cited from earlier work

T1 sequence (P21453 whole entry): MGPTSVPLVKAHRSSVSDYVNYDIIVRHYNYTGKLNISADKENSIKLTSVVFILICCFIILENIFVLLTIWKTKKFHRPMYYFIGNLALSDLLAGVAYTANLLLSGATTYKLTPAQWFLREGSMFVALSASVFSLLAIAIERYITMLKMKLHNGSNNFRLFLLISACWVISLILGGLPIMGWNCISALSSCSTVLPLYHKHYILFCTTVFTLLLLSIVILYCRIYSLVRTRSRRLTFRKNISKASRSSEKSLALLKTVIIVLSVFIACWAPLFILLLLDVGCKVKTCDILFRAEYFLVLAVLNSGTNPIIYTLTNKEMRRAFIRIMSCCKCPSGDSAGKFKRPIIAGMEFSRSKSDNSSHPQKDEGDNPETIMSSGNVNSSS

EC50 (S1P1 [2]) [µM] | Compound | further results
≤ 0.01 | Cc1c2c(nn1-c1nnc(-c3ccc(OC(C)C)c(Cl)c3)s1)CCN(CCC(=O)O)C2 [Example 2, 3-[2-(5-{3-Chloro-4-[(1-methylethyl)oxy]phenyl}-1,3,4-thiadiazol-2-yl)-3-methyl-2,4,6,7-tetrahydro-5H-pyrazolo[4,3-c]pyridin-5-yl]propanoic acid] | EC50 (S1P1 [1]): ≤ 0.01 µM
≤ 0.1 | Cc1c2c(nn1-c1nnc(-c3ccc(OC(C)C)c(C#N)c3)s1)CCNC2 [Example 3, 2-[(1-Methylethyl)oxy]-5-[5-(3-methyl-4,5,6,7-tetrahydro-2H-pyrazolo[4,3-c]pyridin-2-yl)-1,3,4-thiadiazol-2-yl]benzonitrile] | 
≤ 0.01 | Cc1c2c(nn1-c1nnc(-c3ccc(OC(C)C)c(C#N)c3)s1)CCN(CCC(=O)O)C2 [Example 4, 3-[2-(5-{3-Cyano-4-[(1-methylethyl)oxy]phenyl}-1,3,4-thiadiazol-2-yl)-3-methyl-2,4,6,7-tetrahydro-5H-pyrazolo[4,3-c]pyridin-5-yl]propanoic acid trifluoroacetic acid salt] | 
≤ 0.01 | Cc1c2c(nn1-c1nnc(-c3ccc(OC(C)C)c(C#N)c3)s1)CCN(CCC(N)=O)C2 [Example 5, 3-[2-(5-{3-Cyano-4-[(1-methylethyl)oxy]phenyl}-1,3,4-thiadiazol-2-yl)-3-methyl-2,4,6,7-tetrahydro-5H-pyrazolo[4,3-c]pyridin-5-yl]propanamide] | 
≤ 0.01 | CC(C)Oc1ccc(-c2nnc(-n3cc4c(n3)CCN(CCCC(=O)O)C4)s2)cc1Cl [Example 7, 4-[2-(5-{3-Chloro-4-[(1-methylethyl)oxy]phenyl}-1,3,4-thiadiazol-2-yl)-2,4,6,7-tetrahydro-5H-pyrazolo[4,3-c]pyridin-5-yl]butanoic acid] | EC50 (S1P1 [1]): ≤ 0.1 µM
≤ 0.01 | CC(C)Oc1ccc(-c2nnc(-n3cc4c(n3)CCN(CCC(=O)O)C4)s2)cc1Cl [Example 8, 3-[2-(5-{3-Chloro-4-[(1-methylethyl)oxy]phenyl}-1,3,4-thiadiazol-2-yl)-2,4,6,7-tetrahydro-5H-pyrazolo[4,3-c]pyridin-5-yl]propanoic acid] | EC50 (S1P1 [1]): ≤ 0.1 µM
≤ 0.01 | CC(C)Oc1ccc(-c2nnc(-n3cc4c(n3)CCN(CCC(=O)O)C4)s2)cc1C#N [Example 12, 3-[2-(5-{3-Cyano-4-[(1-methylethyl)oxy]phenyl}-1,3,4-thiadiazol-2-yl)-2,4,6,7-tetrahydro-5H-pyrazolo[4,3-c]pyridin-5-yl]propanoic acid] | EC50 (S1P1 [1]): ≤ 0.1 µM
≤ 0.01 | CC(C)Oc1ccc(-c2nnc(-n3cc4c(n3)CCN(CCCC(=O)O)C4)s2)cc1C#N [Example 13, 4-[2-(5-{3-Cyano-4-[(1-methylethyl)oxy]phenyl}-1,3,4-thiadiazol-2-yl)-2,4,6,7-tetrahydro-5H-pyrazolo[4,3-c]pyridin-5-yl]butanoic acid] | 
≤ 0.1 | CC(C)Oc1ccc(-c2nnc(-n3ncc4c3CCN(CCC(=O)O)C4)s2)cc1Cl [Example 15, 3-[1-(5-{3-Chloro-4-[(1-methylethyl)oxy]phenyl}-1,3,4-thiadiazol-2-yl)-1,4,6,7-tetrahydro-5H-pyrazolo[4,3-c]pyridin-5-yl]propanoic acid] | 
≤ 0.01 | Cc1c2c(nn1-c1nnc(-c3ccc(OC(C)C)c(C#N)c3)s1)CCN(C(CO)CO)C2 [Example 25, 5-(5-{5-[2-hydroxy-1-(hydroxymethyl)ethyl]-3-methyl-4,5,6,7-tetrahydro-2H-pyrazolo[4,3-c]pyridin-2-yl}-1,3,4-thiadiazol-2-yl)-2-[(1-methylethyl)oxy]benzonitrile] | 
≤ 0.01 | Cc1c2c(nn1-c1nnc(-c3ccc(OC(C)C)c(C#N)c3)s1)CCN(C[C@H](O)CO)C2 [Example 26, 5-(5-{5-[(2S)-2,3-dihydroxypropyl]-3-methyl-4,5,6,7-tetrahydro-2H-pyrazolo[4,3-c]pyridin-2-yl}-1,3,4-thiadiazol-2-yl)-2-[(1-methylethyl)oxy]benzonitrile] | 
≤ 0.01 | Cc1c2c(nn1-c1nnc(-c3ccc(OC(C)C)c(C#N)c3)s1)CCN(C(=O)CN[C@H](C)CO)C2 [Example 30, 5-[5-(5-{N—[(1R)-2-hydroxy-1-methylethyl]glycyl}-3-methyl-4,5,6,7-tetrahydro-2H-pyrazolo[4,3-c]pyridin-2-yl)-1,3,4-thiadiazol-2-yl]-2-[(1-methylethyl)oxy]benzonitrile] | 
≤ 0.1 | Cc1c2c(nn1-c1nnc(-c3ccc(OC(C)C)c(C#N)c3)s1)CCN(C(=O)CNC[C@H](C)O)C2 [Example 33, 5-[5-(5-{N-[(2S)-2-hydroxypropyl]glycyl}-3-methyl-4,5,6,7-tetrahydro-2H-pyrazolo[4,3-c]pyridin-2-yl)-1,3,4-thiadiazol-2-yl]-2-[(1-methylethyl)oxy]benzonitrile] | 
≤ 0.01 | Cc1c2c(nn1-c1nnc(-c3ccc(OC(C)C)c(C#N)c3)s1)CCN(C(=O)CNC[C@H](O)CO)C2 [Example 34, 5-[5-(5-{N-[(2S)-2,3-dihydroxypropyl]glycyl}-3-methyl-4,5,6,7-tetrahydro-2H-pyrazolo[4,3-c]pyridin-2-yl)-1,3,4-thiadiazol-2-yl]-2-[(1-methylethyl)oxy]benzonitrile] | 
≤ 0.01 | Cc1c2c(nn1-c1nnc(-c3ccc(OC(C)C)c(C#N)c3)s1)CCN(C(=O)CNCCO)C2 [Example 35, 5-(5-{5-[N-(2-hydroxyethyl)glycyl]-3-methyl-4,5,6,7-tetrahydro-2H-pyrazolo[4,3-c]pyridin-2-yl}-1,3,4-thiadiazol-2-yl)-2-[(1-methylethyl)oxy]benzonitrile] | 
≤ 0.01 | Cc1c2c(nn1-c1nnc(-c3ccc(OC(C)C)c(C#N)c3)s1)CCN(C(=O)CNC(CO)CO)C2 [Example 36, 5-[5-(5-{N-[2-hydroxy-1-(hydroxymethyl)ethyl]glycyl}-3-methyl-4,5,6,7-tetrahydro-2H-pyrazolo[4,3-c]pyridin-2-yl)-1,3,4-thiadiazol-2-yl]-2-[(1-methylethyl)oxy]benzonitrile] | 
≤ 0.01 | COC(=O)[C@H](O)CN1CCc2nn(-c3nnc(-c4ccc(OC(C)C)c(Cl)c4)s3)c(C)c2C1 [Example 41, methyl (2R)-3-[2-(5-{3-chloro-4-[(1-methylethyl)oxy]phenyl}-1,3,4-thiadiazol-2-yl)-3-methyl-2,4,6,7-tetrahydro-5H-pyrazolo[4,3-c]pyridin-5-yl]-2-hydroxypropanoate] | 
≤ 0.1 | Cc1c2c(nn1-c1nnc(-c3ccc(OC(C)C)c(Cl)c3)s1)CCN(C[C@H](O)CO)C2 [Example 42, (2S)-3-[2-(5-{3-chloro-4-[(1-methylethyl)oxy]phenyl}-1,3,4-thiadiazol-2-yl)-3-methyl-2,4,6,7-tetrahydro-5H-pyrazolo[4,3-c]pyridin-5-yl]-1,2-propanediol formic acid salt] | 
 | CCCCCCCCc1ccc(CCC(N)(CO)CO)cc1 [FTY720] | bradycardia [3]: results in bradycardia; effect on circulating lymphocytes (circulating lymphocytes): reduce circulating lymphocytes
